Measurements published in US20180028553A1, “USE OF STING AGONIST AS CANCER TREATMENT” (The University of Chicago, priority 2013, published 2018).
Entries after “also recorded” stand apart in the source; their conditions may differ.

How the values were obtained:
[1] = test system: innate cytokines in BM-DCs; experiment: Quantitative RT-PCR analysis of cytokines in BM-DCs; format: cell-based, mouse; details: DMXAA 25 μg/ml, 4 h
Protocol: Quantitative RT-PCR analysis of cytokines. […] Total RNA was isolated using the RNeasy® kit (Qiagen) and incubated with Deoxyribonuclease I, Amplification Grade (Invitrogen). cDNA was synthesized using High Capacity cDNA Reverse Transcription Kit (Applied Biosystem) and expression of cytokines was measured by real-time qRT-PCR using specific primers/probes for mouse INF-β, TNF-α, IL-6 and IL-12p40, using a 7300 Real Time PCR system (Applied Biosystem). The results are expressed as 2^−ΔCt using 18s as endogenous control.

[2] = test system: BM-DCs (CD40, CD86, MHC class II); experiment: Expression of activation markers on BM-DCs by flow cytometry; format: cell-based, mouse; details: WT versus STING-deficient BM-DCs; DMXAA 25 μg/ml or LPS 100 ng/ml
Protocol: Expression of activation markers by flow cytometry. […] Stained cells were analyzed using LSR II cytometer with FACSDiva software (BD) or FACSVerse with FACSuite software. Data analysis was conducted with FlowJo software (Tree Star).

[3] = test system: B16.SIY tumors; format: in vivo
Protocol: As a comparison, the cyclic dinucleotide compounds from Aduro will be injected into tumors in parallel sets of mice. Tumor volumes are estimated twice a week using the formula described above.
(§1) In vivo tumor experiments. 10^6 of B16-SIY tumor cells, 5×10^4 B16.F10 tumor cells, 10^5 4T1 and CT26, or 10^6 other tumor cells were injected s.c. in 100 μl DPBS or HBSS on the right flank of mice. Following tumor implantation, mice were randomized into treatment groups. […] Measurements of tumors were performed twice per week using calipers, and the tumor volume was calculated with the formula: V=(length×width^2)/2. In some experiments, tumor-free survivors were rechallenged with tumor cells on the opposite flank several weeks after the injection of the primary tumor. Naïve mice were used as controls. For the contralateral experiments, mice were implanted on both flanks and only one tumor was treated. For the B16 melanoma lung metastasis experiments, mice were implanted on the flank with 5×10^4 cells B16.F10 on day 0, and then injected intravenously with 1×10^5 cells on day 7. Lungs were harvested on day 28. Administration of compounds, measurements of tumors and counting of lung tumors were performed in a blinded fashion.

[4] = test system: SIY antigen; experiment: IFN-γ ELISPOT and SIY-pentamer staining in B16.SIY tumor-bearing mice; format: in vivo, mouse
Protocol: The mouse IFN-γ enzyme-linked Immunospot assay (ELISPOT) from BD is used according to the manufacturer's protocol. In brief, splenocytes are plated at 10^6 cells/well and stimulated overnight with SIY peptide (160 nM), PMA (50 ng/ml) and ionomycin (0.5 μM) as positive control, or medium (DMEM supplemented with 10% heat-inactivated FCS, penicillin, streptomycin, L-arginine, L-glutamine, folic acid, and L-asparagine) as negative control. IFN-γ spots are detected using biotinylated antibody and avidin-peroxidase and developed using AEC substrate (BD Bioscience). Plates are read in an Immunospot Series 3 Analyzer and analyzed with ImmunoSpot software (Cellular Technology Ltd).
5×10^6 cells/sample are labeled with PE-MHC class I tetramers (Beckman Coulter or Proimmune) consisting of murine H-2Kb complexed to either […] (SIY) peptide or […] (OVA) peptide as a negative control, anti-TCRβ-AF700 (clone H57-597), antiCD8-PO (clone 5H10), anti-CD4-PB (clone RM4-5), anti CD62L-PE_Cy7 (clone MEL-14), anti-CD44-APC (clone IM7) and the Fixable Viability dye eFluor780 (eBioScience). FACS analysis is performed using FACSCanto or LSR II cytometers with FACSDiva software (BD). Data analysis is conducted with FlowJo software (Tree Star).
IFN-γ ELISPOT and SIY-pentamer staining. […] For the ELISPOTs, 10^6 splenocytes were plated per well and stimulated overnight with SIY peptide (160 nM) or AH1 (1 μM) peptide, with PMA (50 ng/ml) plus ionomycin (0.5 μM) as a positive control, or medium as negative control. Spots were developed using the BD mouse IFN-γ kit according to the manufacturer's instructions and the number of spots was measured using an Immunospot Series 3 Analyzer and analyzed using ImmunoSpot software (Cellular Technology Ltd). For SIY-pentamer staining, splenocytes were preincubated for 15 min with anti-CD16/32 monoclonal antibody (93) to block potential nonspecific binding, and labeled with PE-MHC class I pentamer (Proimmune) consisting of murine H-2K^b complexed to […] (SIY) peptide, anti-TCRβ-AF700 (H57-597), anti-CD8-Pacific Blue (53-6.7), anti-CD4-Pacific Orange (RM4-5) (all antibodies from BioLegend) and the Fixable Viability Dye eFluor 450 (eBioscience). Stained cells were analyzed using LSR II cytometer with FACSDiva software (BD). Data analysis was conducted with FlowJo software (Tree Star).

[5] = test system: B16.F10 tumors; experiment: Intratumoral treatment of established B16.F10 tumors; format: in vivo, mouse; details: C57BL/6 mice, single IT dose of 500 μg DMXAA
Protocol: as §1

[6] = test system: TRAMP-C2 tumors; experiment: Intratumoral treatment of TRAMP-C2 tumors; format: in vivo, mouse; details: C57BL/6 mice, single IT dose of 500 μg DMXAA
Protocol: as §1

[7] = test system: 4T-1 tumors; experiment: Intratumoral treatment of 4T-1 tumors; format: in vivo, mouse; details: BALB/c mice, single IT dose of 500 μg DMXAA
Protocol: as §1

[8] = test system: Ag104L tumors; experiment: Intratumoral treatment of Ag104L tumors; format: in vivo, mouse; details: C3H mice, single IT dose of 500 μg DMXAA
Protocol: as §1

[9] = test system: five hSTING alleles (WT, REF, HAQ, AQ and Q); experiment: IFN-β luciferase reporter assay in HEK 293T cells expressing hSTING variants; format: cell-based, human; details: 100 μg/ml DMXAA, 6 hours
Protocol: Luciferase Assay. […] After 20 min, stimulation mixtures were removed and normal media was added. After a total of 6 hours, cell lysates were prepared and reporter gene activity measured using the Dual Luciferase Assay System (Promega) on a Spectramax M3 luminometer.

[10] = test system: tumors; details: background statement; cited from earlier work
[11] = test system: tumors; details: background statement; cited from earlier work; remark: listed apart in the source

With `Cc1ccc2c(=O)c3cccc(CC(=O)O)c3oc2c1C` [DMXAA, 5,6-dimethylXAA (xanthenone-4-acetic acid)] the “expression of innate cytokines” value ([1]; STING^−/− BM-DCs) was “not STING^−/− BM-DCs”, the “expression of innate cytokines” value ([1]; WT BM-DCs) was “upregulated other cytokines such as TNFα, IL6, IL1, IL10, and IL12 in a STING dependent manner; also recorded: IFN-β, TNF-α, IL-1β, IL-6 and IL12p35 were induced” and the “induction of co-stimulatory molecules (CD40, CD86, MHC class II)” value [2] was “upregulated activation markers such as CD40 and C86 in a STING dependent manner; also recorded: observed only in WT cells”. The “mice that reject the tumors” value ([3]; WT B6 mice, tumors 100-200 mm3, single intratumoral dose) was 80-90%, the “tumor regression and rejection” value ([3]; WT mice, single IT dose of 500 μg at day 7) was “potent tumor regression in all animals and complete tumor rejection in the majority of mice” and the “regression of injected and non-injected secondary tumor” value ([3]; tumors in both flanks, only one treated IT) was “Tumor regression was observed in both sites”. The “frequencies of SIY-specific T cells” value ([4]; STING^−/− mice) was “markedly reduced”, the “SIY-specific CD8+ T cells by SIY pentamer staining” value ([4]; WT mice, spleens (b243 also tumors), after IT DMXAA) was “higher amount of CD8+ SIY specific T cells; also recorded: high frequency of SIY-specific CD8^+ T cells” and the “endogenous T cell response against SIY (ELISPOT and CD8 SIY positive cells in spleen and tumors)” value ([4]; one week after injection) was “highly increased”. For the same molecule, the “increase in number of specific T cells producing IFN-g upon stimulation with SIY (ELISPOT)” value ([4]; one week after injection, versus saline) was 10 fold, the “frequency of SIY-specific IFN-γ-producing T cells (ELISPOT)” value ([4]; splenocytes 5 days after treatment, 500 μg IT, WT mice) was “marked increase” and the tumor growth [5] was “significantly reduced the growth”. For the same molecule, the tumor growth [6] was “significantly reduced the growth”, the tumor growth [7] was “significantly reduced the growth” and the tumor growth [8] was “significantly reduced the growth”. The IFN-β reporter activation [9] was “failed to activate”, the antitumor effect [10] was “induced haemorrhagic necrosis and tumour regression” and the “outcome of clinical trials for the treatment of tumors” value [11] was “all failed”.
